# According to US10406122B2 (priority 2011, dated 2019):
# Where a name gives a salt, the structure may show the parent alone.
# Assay: clinical
# Conditions: human, in vivo
# Text: The secondary objectives of the study are to assess the safety and tolerability of the study medication.
# The study was an open-label, single-period, randomized, parallel treatment design. The subjects underwent screening within 4 weeks of dosing. A total of 32 subjects were selected for participation. All subjects entered the clinical research unit on Day −1 prior to dosing. A blood sample for pharmacogenomic analysis was obtained at Day 1. This sample was to be used to determine the CYP2D6 phenotype if significant variability among subjects is observed in the pharmacokinetic values. Subjects received study drug every 6 hours beginning on the morning of Day 1 and ending on the morning of Day 3. The first dose on Day 1 and the last dose on Day 3 were administered after a minimum 10 hour fast.
# No food was administered until 4 hours after dosing on Day 3. Standardized meals were provided. Subjects remained confined to the clinical research unit until after completion of the 24 hour post-dose blood sampling and safety assessments (Day 4). […] Study drug tolerability was evaluated by Investigator assessment and evaluation of adverse event frequency and severity, including irritation at the injection site. Subjects who were taking SSRIs, tricyclic antidepressants, antipsychotic agents and MAO inhibitors were excluded from the study.
# The treatments are defined in Table 3 below. Each subject received only one of the designated treatments.
# The subjects were randomized to receive one of the 4 treatment regimens as outlined above. Subjects were administered Treatments A or C by intravenous administration or Ultram® (Treatment B or D) orally beginning in the morning of Day 1 at approximately 6:00 AM to 8:00 AM. All subjects fasted for at least 10 hours prior to the first dose of study drug. […] Water was allowed ad libitum; however, water was restricted from 1 hour prior to dosing to 1 hour after dosing on Day 3. Following the last dose in the morning of Day 3, no food was allowed until after the 4 hour blood sample had been obtained.
# FIG. 1 is a graphical representation of the plasma concentration curve for Treatments A-D after the administration of dose #9.
smiles,measurement,setting,value
"COc1cccc([C@]2(O)CCCC[C@H]2CN(C)C)c1 (racemic) [Tramadol, (±)cis-2-[(dimethylamino)methyl]-1-(3-methoxyphenyl) cyclohexanol hydrochloride]","Bioavailability, AUC6",50 mg,85.2%
same,"Bioavailability, AUCt",50 mg,102.0%
same,"Bioavailability, AUC∞",50 mg,103.1%
same,"Bioavailability, Cmax",50 mg,64.3%
same,"Bioavailability, T1/2",50 mg,109.6%
same,bioavailability,50 mg,91.2%
same,"Bioavailability, AUC6",100 mg,70.3%
same,"Bioavailability, AUCt",100 mg,74.8%
same,"Bioavailability, AUC∞",100 mg,74.6%
same,"Bioavailability, Cmax",100 mg,54.9%
same,"Bioavailability, T1/2",100 mg,88.0%
same,bioavailability,100 mg,114%
same,dose proportionality,iv,substantially dose proportional
same,AUC,"iv, 50 mg",1960 ± 450 ng·h/mL
same,AUC(0-inf),"iv, 50 mg",4040 ± 1060 ng·h/mL
same,AUC(0-t),"iv, 50 mg",4010 ± 1040 ng·h/mL
same,half-life,"iv, 50 mg",6.61 ± 0.4 h
same,Cmax,"iv, 50 mg",~541 ng/mL
same,Tmax,"iv, 50 mg",~0.375 h
same,AUC,"iv, 100 mg",4730 ± 1240 ng·h/mL
same,AUC(0-inf),"iv, 100 mg",11400 ± 4540 ng·h/mL
same,AUC(0-t),"iv, 100 mg",11200 ± 4270 ng·h/mL
same,half-life,"iv, 100 mg",7.89 ± 1.54 h
same,Cmax,"iv, 100 mg",~1250 ng/mL
same,Tmax,"iv, 100 mg",~0.406 h
same,"Dose Proportionality Ratio, T1/2",po,0.945
same,AUC,"po, 50 mg",1730 ± 625 ng·h/mL
same,AUC(0-inf),"po, 50 mg",4450 ± 2110 ng·h/mL
same,AUC(0-t),"po, 50 mg",4360 ± 2030 ng·h/mL
same,half-life,"po, 50 mg",7.39 ± 1.72 h
same,Cmax,"po, 50 mg",355 ± 121 ng/mL
same,Tmax,"po, 50 mg",1.88 ± 0.78 h
same,AUC,"po, 100 mg",3360 ± 1010 ng·h/mL
same,AUC(0-inf),"po, 100 mg",8850 ± 4570 ng·h/mL
same,AUC(0-t),"po, 100 mg",8660 ± 4260 ng·h/mL
same,half-life,"po, 100 mg",7.05 ± 1.97 h
same,Cmax,"po, 100 mg",703 ± 210 ng/mL
same,Tmax,"po, 100 mg",2.32 ± 1.35 h
